Measurements: patent publication US3956314A, “Derivatives of 2-pyrrolidinone” (U.C.B., Societe Anonyme, priority 1970, dated 1976)

Tests used:
Wistar rats = experiment: anxiolytic action: shuttle box conditioning test, painful electric shocks, second sequence; type: in vivo
Procedure: Wistar rats (weighing 100 g. ± 20 g.) are first permitted to become accustomed, during 10 minutes, to conditioning cages of the shuttle box type, after which they are subjected to a first sequence of 20 painful electric shocks of 3 seconds on their paws repeated every 30 seconds. During this first sequence, the rats ran away before the end of the shock about 15 times out of 20 shocks.
On the other hand, if these same animals are subjected to a sequence of shocks 4 hours later, paradoxically, instead of improving their performance (as in the course of a normal training) a reduction in the number of evasions is found: the animals have become set and are less successful in running away before the end of the shocks. This behavior is attributed to an anxiety state induced by the experimental situation.
Intraperitoneal administration of an anxiolytic substance to the rats, half an hour before the second sequence is carried out, improves their performance (increase in the number of evasions before the end of the shock).
A group of rats, to which a substance to be tested is administered, is compared with a group of control rats, which has been injected with physiological serum under the same conditions. […]

[1] = toxicity determined in rat by intraperitoneal administration (LD50); settings: in vivo, ip
Description: Moreover, the compounds of the invention have low toxicity.

With `O=C1CC(c2ccc(Cl)cc2)CN1` (centres unmarked) [T, 4-(para-chlorophenyl)-pyrrolidone-(2)] as the compound, how does the “performance (in words)” value (Wistar rats; dose of 0.32 mmole/kg) read?
Its value is “a decrease in the performance”.

And the “anxiolytic action (in words)” value (Wistar rats; rat shuttle box test)?
Its value is “practically no anxiolytic action”.

Which LD50 [1] does the source give for `O=C1NC[C@H](c2ccc(Cl)cc2)[C@@H]1c1ccccc1` (relative stereo) [E, 4-p-chlorophenyl-3-phenyl-2-pyrrolidinone (cis isomer)] here?
Its LD50 is 320 mg/kg.

Which LD50 ([1]; reference drug) does the source give for `CNC1=Nc2ccc(Cl)cc2C(c2ccccc2)=[N+]([O-])C1` [S, 7-chloro-2-methylamino-5-phenyl-3H-1,4-benzodiazepine-4-oxide] here?
Its LD50 is 240 mg/kg.

For `CC1C(=O)NCC1c1ccc(Cl)cc1` [Compound D, 4-p-chlorophenyl-3-methyl-2-pyrrolidinone (trans isomer)], which LD50 [1] is on record?
The LD50 was 306 mg/kg.
